The results in this text go back to ChEMBL document CHEMBL1153040, “HIF-1alpha peptide derivatives with modifications at the hydroxyproline residue as activators of HIF-1alpha” (Bioorg Med Chem Lett, 2009).

Calls of active or inactive are those of the source. No cut-off for these calls is given here.

The target of assay [1] is Hypoxia-inducible factor 1-alpha (Homo sapiens, UniProt Q16665). Briefly: Inhibition of interaction between fluorescein-labeled proline hydroxylated human HIFalpha (556 to 575) and human VHL-human elongin B-human elongin C complex expressed in Escherichia coli by fluorescence polarization assay.
Hypoxia-inducible factor 1-alpha, sequence (Q16665 whole entry): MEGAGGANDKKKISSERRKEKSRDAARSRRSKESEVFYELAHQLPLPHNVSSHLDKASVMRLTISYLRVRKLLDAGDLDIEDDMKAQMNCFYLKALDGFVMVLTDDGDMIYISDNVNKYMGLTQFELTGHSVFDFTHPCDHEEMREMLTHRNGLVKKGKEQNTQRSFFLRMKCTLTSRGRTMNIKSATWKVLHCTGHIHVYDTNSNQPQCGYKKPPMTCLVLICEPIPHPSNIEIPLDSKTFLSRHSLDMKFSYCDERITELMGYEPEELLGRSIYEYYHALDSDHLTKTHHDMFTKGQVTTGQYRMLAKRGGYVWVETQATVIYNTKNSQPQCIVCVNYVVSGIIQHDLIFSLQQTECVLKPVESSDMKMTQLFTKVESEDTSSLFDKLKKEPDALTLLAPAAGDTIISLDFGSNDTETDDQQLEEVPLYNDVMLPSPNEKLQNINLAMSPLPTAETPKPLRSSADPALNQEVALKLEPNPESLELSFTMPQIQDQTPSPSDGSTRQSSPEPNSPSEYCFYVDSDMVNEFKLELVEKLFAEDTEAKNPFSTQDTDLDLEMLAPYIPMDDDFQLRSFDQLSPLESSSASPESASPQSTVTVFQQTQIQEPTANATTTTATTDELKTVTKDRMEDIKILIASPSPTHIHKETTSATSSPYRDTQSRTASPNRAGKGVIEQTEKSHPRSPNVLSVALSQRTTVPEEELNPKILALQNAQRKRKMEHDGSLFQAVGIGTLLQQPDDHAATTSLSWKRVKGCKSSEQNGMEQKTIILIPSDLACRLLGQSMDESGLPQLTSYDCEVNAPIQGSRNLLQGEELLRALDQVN
The subject of another assay is HeLa. Kind of assay: Induction of HIFalpha stabilization in human HeLa cells assessed as HIFalpha accumulation at 1 mM incubated under normoxic condition for 6 hrs by Western blot analysis. In kind it is functional, cell-based.

As to `CC[C@@H](C)[C@H](NC(=O)[C@H](Cc1ccc(O)cc1)NC(=O)[C@@H]1CCCN1C(=O)[C@H](C)NC(=O)[C@H](CC(C)C)NC(=O)[C@H](C)NC(=O)[C@H](CCC(=O)O)NC(=O)[C@H](CC(C)C)NC(=O)[C@H](CC(=O)O)NC(=O)[C@H](CC(C)C)NC(=O)[C@@H](N)CC(=O)O)C(=O)N1CCC[C@H]1C(=O)N[C@@H](C)C(=O)N[C@@H](CC(=O)O)C(=O)N[C@@H](CC(=O)O)C(=O)N[C@@H](CC(=O)O)C(=O)N[C@@H](Cc1ccccc1)C(=O)N[C@@H](CCC(N)=O)C(=O)N[C@@H](CC(C)C)C(=O)N[C@@H](CCCNC(=N)N)C(N)=O`, the Ki in assay [1] is greater than 500 µM.
With `CC[C@@H](C)[C@H](NC(=O)[C@H](Cc1ccc(O)cc1)NC(=O)[C@H](CCO)NC(=O)[C@H](C)NC(=O)[C@H](CC(C)C)NC(=O)[C@H](C)NC(=O)[C@H](CCC(=O)O)NC(=O)[C@H](CC(C)C)NC(=O)[C@H](CC(=O)O)NC(=O)[C@H](CC(C)C)NC(=O)[C@@H](N)CC(=O)O)C(=O)N1CCC[C@H]1C(=O)N[C@@H](C)C(=O)N[C@@H](CC(=O)O)C(=O)N[C@@H](CC(=O)O)C(=O)N[C@@H](CC(=O)O)C(=O)N[C@@H](Cc1ccccc1)C(=O)N[C@@H](CCC(N)=O)C(=O)N[C@@H](CC(C)C)C(=O)N[C@@H](CCCNC(=N)N)C(N)=O`, the result with HeLa was Active.
In turn, `CC[C@@H](C)[C@H](NC(=O)[C@H](Cc1ccc(O)cc1)NC(=O)[C@H](CC(=O)O)NC(=O)[C@H](C)NC(=O)[C@H](CC(C)C)NC(=O)[C@H](C)NC(=O)[C@H](CCC(=O)O)NC(=O)[C@H](CC(C)C)NC(=O)[C@H](CC(=O)O)NC(=O)[C@H](CC(C)C)NC(=O)[C@@H](N)CC(=O)O)C(=O)N1CCC[C@H]1C(=O)N[C@@H](C)C(=O)N[C@@H](CC(=O)O)C(=O)N[C@@H](CC(=O)O)C(=O)N[C@@H](CC(=O)O)C(=O)N[C@@H](Cc1ccccc1)C(=O)N[C@@H](CCC(N)=O)C(=O)N[C@@H](CC(C)C)C(=O)N[C@@H](CCCNC(=N)N)C(N)=O` had a Ki in assay [1] of 15 µM.
For `CC[C@@H](C)[C@H](NC(=O)[C@H](Cc1ccc(O)cc1)NC(=O)[C@@H]1C[C@@H](O)CN1C(=O)[C@H](C)NC(=O)[C@H](CC(C)C)NC(=O)[C@H](C)NC(=O)[C@H](CCC(=O)O)NC(=O)[C@H](CC(C)C)NC(=O)[C@H](CC(=O)O)NC(=O)[C@H](CC(C)C)NC(=O)[C@@H](N)CC(=O)O)C(=O)N1CCC[C@H]1C(=O)N[C@@H](C)C(=O)N[C@@H](CC(=O)O)C(=O)N[C@@H](CC(=O)O)C(=O)N[C@@H](CC(=O)O)C(=O)N[C@@H](Cc1ccccc1)C(=O)N[C@@H](CCC(N)=O)C(=O)N[C@@H](CC(C)C)C(=O)N[C@@H](CCCNC(=N)N)C(N)=O`, in the assay with HeLa, the outcome was Active.
Regarding `CC[C@@H](C)[C@H](NC(=O)[C@H](Cc1ccc(O)cc1)NC(=O)[C@@H](NC(=O)[C@H](C)NC(=O)[C@H](CC(C)C)NC(=O)[C@H](C)NC(=O)[C@H](CCC(=O)O)NC(=O)[C@H](CC(C)C)NC(=O)[C@H](CC(=O)O)NC(=O)[C@H](CC(C)C)NC(=O)[C@@H](N)CC(=O)O)C(C)C)C(=O)N1CCC[C@H]1C(=O)N[C@@H](C)C(=O)N[C@@H](CC(=O)O)C(=O)N[C@@H](CC(=O)O)C(=O)N[C@@H](CC(=O)O)C(=O)N[C@@H](Cc1ccccc1)C(=O)N[C@@H](CCC(N)=O)C(=O)N[C@@H](CC(C)C)C(=O)N[C@@H](CCCNC(=N)N)C(N)=O`, the affinity in assay [1] corresponds to a Ki of 16 µM.
Same read-out and setting: the value for `CC[C@@H](C)[C@H](NC(=O)[C@H](Cc1ccc(O)cc1)NC(=O)[C@H](CC(N)=O)NC(=O)[C@H](C)NC(=O)[C@H](CC(C)C)NC(=O)[C@H](C)NC(=O)[C@H](CCC(=O)O)NC(=O)[C@H](CC(C)C)NC(=O)[C@H](CC(=O)O)NC(=O)[C@H](CC(C)C)NC(=O)[C@@H](N)CC(=O)O)C(=O)N1CCC[C@H]1C(=O)N[C@@H](C)C(=O)N[C@@H](CC(=O)O)C(=O)N[C@@H](CC(=O)O)C(=O)N[C@@H](CC(=O)O)C(=O)N[C@@H](Cc1ccccc1)C(=O)N[C@@H](CCC(N)=O)C(=O)N[C@@H](CC(C)C)C(=O)N[C@@H](CCCNC(=N)N)C(N)=O` was 13 µM.
For the compound `CC[C@@H](C)[C@H](NC(=O)[C@H](Cc1ccc(O)cc1)NC(=O)[C@@H]1C[C@@H](F)CN1C(=O)[C@H](C)NC(=O)[C@H](CC(C)C)NC(=O)[C@H](C)NC(=O)[C@H](CCC(=O)O)NC(=O)[C@H](CC(C)C)NC(=O)[C@H](CC(=O)O)NC(=O)[C@H](CC(C)C)NC(=O)[C@@H](N)CC(=O)O)C(=O)N1CCC[C@H]1C(=O)N[C@@H](C)C(=O)N[C@@H](CC(=O)O)C(=O)N[C@@H](CC(=O)O)C(=O)N[C@@H](CC(=O)O)C(=O)N[C@@H](Cc1ccccc1)C(=O)N[C@@H](CCC(N)=O)C(=O)N[C@@H](CC(C)C)C(=O)N[C@@H](CCCNC(=N)N)C(N)=O`, the result in the assay with HeLa was Active. Besides, the Ki in assay [1] is 5.8 µM.
In the case of `CC[C@@H](C)[C@H](NC(=O)[C@H](Cc1ccc(O)cc1)NC(=O)[C@@H]1C[C@@H](O)CN1C(=O)[C@H](C)NC(=O)[C@H](CC(C)C)NC(=O)[C@H](C)NC(=O)[C@H](CCC(=O)O)NC(=O)[C@H](CC(C)C)NC(=O)[C@H](CC(=O)O)NC(=O)[C@H](CC(C)C)NC(=O)[C@@H](N)CC(=O)O)C(=O)N1CCC[C@H]1C(=O)N[C@@H](C)C(=O)N[C@@H](CC(=O)O)C(=O)N[C@@H](CC(=O)O)C(=O)N[C@@H](CC(=O)O)C(=O)N[C@@H](Cc1ccccc1)C(=O)N[C@@H](CCC(N)=O)C(=O)N[C@@H](CC(C)C)C(=O)N[C@@H](CCCN=C(N)N)C(N)=O`, the affinity in assay [1] corresponds to a Ki of 3.7 µM.
Take `CC[C@@H](C)[C@H](NC(=O)[C@H](Cc1ccc(O)cc1)NC(=O)[C@@H]1CCCCN1C(=O)[C@H](C)NC(=O)[C@H](CC(C)C)NC(=O)[C@H](C)NC(=O)[C@H](CCC(=O)O)NC(=O)[C@H](CC(C)C)NC(=O)[C@H](CC(=O)O)NC(=O)[C@H](CC(C)C)NC(=O)[C@@H](N)CC(=O)O)C(=O)N1CCC[C@H]1C(=O)N[C@@H](C)C(=O)N[C@@H](CC(=O)O)C(=O)N[C@@H](CC(=O)O)C(=O)N[C@@H](CC(=O)O)C(=O)N[C@@H](Cc1ccccc1)C(=O)N[C@@H](CCC(N)=O)C(=O)N[C@@H](CC(C)C)C(=O)N[C@@H](CCCN=C(N)N)C(N)=O`: in assay [1], the inhibition constant (Ki) came out at 77 µM.
Still for that read-out and setting: the value for `CC[C@@H](C)[C@H](NC(=O)[C@H](Cc1ccc(O)cc1)NC(=O)[C@H](CCO)NC(=O)[C@H](C)NC(=O)[C@H](CC(C)C)NC(=O)[C@H](C)NC(=O)[C@H](CCC(=O)O)NC(=O)[C@H](CC(C)C)NC(=O)[C@H](CC(=O)O)NC(=O)[C@H](CC(C)C)NC(=O)[C@@H](N)CC(=O)O)C(=O)N1CCC[C@H]1C(=O)N[C@@H](C)C(=O)N[C@@H](CC(=O)O)C(=O)N[C@@H](CC(=O)O)C(=O)N[C@@H](CC(=O)O)C(=O)N[C@@H](Cc1ccccc1)C(=O)N[C@@H](CCC(N)=O)C(=O)N[C@@H](CC(C)C)C(=O)N[C@@H](CCCN=C(N)N)C(N)=O` was 3.4 µM; that for `CC[C@@H](C)[C@H](NC(=O)[C@H](Cc1ccc(O)cc1)NC(=O)[C@@H](NC(=O)[C@H](C)NC(=O)[C@H](CC(C)C)NC(=O)[C@H](C)NC(=O)[C@H](CCC(=O)O)NC(=O)[C@H](CC(C)C)NC(=O)[C@H](CC(=O)O)NC(=O)[C@H](CC(C)C)NC(=O)[C@@H](N)CC(=O)O)[C@H](C)O)C(=O)N1CCC[C@H]1C(=O)N[C@@H](C)C(=O)N[C@@H](CC(=O)O)C(=O)N[C@@H](CC(=O)O)C(=O)N[C@@H](CC(=O)O)C(=O)N[C@@H](Cc1ccccc1)C(=O)N[C@@H](CCC(N)=O)C(=O)N[C@@H](CC(C)C)C(=O)N[C@@H](CCCN=C(N)N)C(N)=O` was 18 µM.
In turn, `CC[C@@H](C)[C@H](NC(=O)[C@H](Cc1ccc(O)cc1)NC(=O)[C@H](CCN)NC(=O)[C@H](C)NC(=O)[C@H](CC(C)C)NC(=O)[C@H](C)NC(=O)[C@H](CCC(=O)O)NC(=O)[C@H](CC(C)C)NC(=O)[C@H](CC(=O)O)NC(=O)[C@H](CC(C)C)NC(=O)[C@@H](N)CC(=O)O)C(=O)N1CCC[C@H]1C(=O)N[C@@H](C)C(=O)N[C@@H](CC(=O)O)C(=O)N[C@@H](CC(=O)O)C(=O)N[C@@H](CC(=O)O)C(=O)N[C@@H](Cc1ccccc1)C(=O)N[C@@H](CCC(N)=O)C(=O)N[C@@H](CC(C)C)C(=O)N[C@@H](CCCN=C(N)N)C(N)=O` displayed a Ki in assay [1] of 109 µM.
On to `CC[C@@H](C)[C@H](NC(=O)[C@H](Cc1ccc(O)cc1)NC(=O)[C@H](CC(C)C)NC(=O)[C@H](C)NC(=O)[C@H](CC(C)C)NC(=O)[C@H](C)NC(=O)[C@H](CCC(=O)O)NC(=O)[C@H](CC(C)C)NC(=O)[C@H](CC(=O)O)NC(=O)[C@H](CC(C)C)NC(=O)[C@@H](N)CC(=O)O)C(=O)N1CCC[C@H]1C(=O)N[C@@H](C)C(=O)N[C@@H](CC(=O)O)C(=O)N[C@@H](CC(=O)O)C(=O)N[C@@H](CC(=O)O)C(=O)N[C@@H](Cc1ccccc1)C(=O)N[C@@H](CCC(N)=O)C(=O)N[C@@H](CC(C)C)C(=O)N[C@@H](CCCNC(=N)N)C(N)=O`, for which, in the assay on HeLa, the outcome was inactive. This compound registered a Ki in assay [1] of 58 µM.
`CC[C@@H](C)[C@H](NC(=O)[C@H](C)NC(=O)[C@H](CC(C)C)NC(=O)[C@H](C)NC(=O)[C@H](CCC(=O)O)NC(=O)[C@H](CC(C)C)NC(=O)[C@H](CC(=O)O)NC(=O)[C@H](CC(C)C)NC(=O)[C@@H](N)CC(=O)O)C(=O)N[C@@H](Cc1ccc(O)cc1)C(=O)N[C@H](C(=O)N1CCC[C@H]1C(=O)N[C@@H](C)C(=O)N[C@@H](CC(=O)O)C(=O)N[C@@H](CC(=O)O)C(=O)N[C@@H](CC(=O)O)C(=O)N[C@@H](Cc1ccccc1)C(=O)N[C@@H](CCC(N)=O)C(=O)N[C@@H](CC(C)C)C(=O)N[C@@H](CCCN=C(N)N)C(N)=O)[C@H](C)CC`: affinity in assay [1] was put at a Ki of 50 µM.
